Data on 1 molecule can be found in ChEMBL document CHEMBL3832085.

The series in a line: clinical. As to conditions: human, in vivo, topical or ocular, 46.1 mg.

By AUC is commonly meant concentration integrated over time. By Cmax is commonly meant the peak of the concentration-time curve. In general, Tmax refers to the time from dosing to the highest level. Turning to `CCN(CC)CC(=O)Nc1c(C)cccc1C` [LIDOCAINE], the AUC (AUC(0 to inf)) was 61.3 ng·h/mL. Further, where the note is “Cmax”, the concentration peaked (Cmax) at 27.2 ng/mL. Moreover, the Tmax (Tmax) was 45 min.
